Article PMC3857843, “Multiple Transport-Active Binding Sites Are Available for a Single Substrate on Human P-Glycoprotein (ABCB1)” (PLoS ONE, 2013)

What was measured:
Assay in all cases: Transport of fluorescent substrates in BacMam-transduced HeLa cells (flow cytometry)
F343C mutant Pgp = F343C mutant Pgp (Homo sapiens, UniProt P08183, C1074A/C1125A/C1227A/C137A/C431A/C717A/C956A/F343C); conditions: compared to cysless WT Pgp (taken as 100%), calcein-AM 0.5 µM 10 min, Rh123 […], other substrates 0.5 µM 45 min
Protocol: (§1) The BacMam-Pgp virus (encoding cysless WT and the mutant Pgps) was added to 2.5 million HeLa cells at a titer of 50-60 viral particles per cell in 3 ml of DMEM and incubated at 37°C [30]. After 1 hr DMEM was added to make a total of 20 ml in the flask and these infected cells were further incubated for 3-4 hrs. 10 mM butyric acid was then added and the cells continued to incubate at 37°C. After 24 hrs, the cells were trypsinized, washed, counted and analyzed by flow cytometry for cell surface expression and the function of the wildtype and mutant Pgps.
(§2) The transport function of cysless WT and mutant Pgps was determined using fluorescent compounds with flow cytometry as previously described. […] Cells were washed with cold PBS and resuspended in PBS containing 0.1% BSA before analysis.

F343C/V982C mutant Pgp = F343C/V982C mutant Pgp (Homo sapiens, UniProt P08183, C1074A/C1125A/C1227A/C137A/C431A/C717A/C956A/F343C/V982C); conditions: compared to cysless WT Pgp (taken as 100%), calcein-AM 0.5 µM 10 min, Rh123 […], other substrates 0.5 µM 45 min
Protocol: as §1, §2

F728C mutant Pgp = F728C mutant Pgp (Homo sapiens, UniProt P08183, C1074A/C1125A/C1227A/C137A/C431A/C717A/C956A/F728C); conditions: compared to cysless WT Pgp (taken as 100%), calcein-AM 0.5 µM 10 min, Rh123 […], other substrates 0.5 µM 45 min
Protocol: as §1, §2

F728C/V982C mutant Pgp = F728C/V982C mutant Pgp (Homo sapiens, UniProt P08183, C1074A/C1125A/C1227A/C137A/C431A/C717A/C956A/F728C/V982C); conditions: compared to cysless WT Pgp (taken as 100%), calcein-AM 0.5 µM 10 min, Rh123 […], other substrates 0.5 µM 45 min
Protocol: as §1, §2

F978C mutant Pgp = F978C mutant Pgp (Homo sapiens, UniProt P08183, C1074A/C1125A/C1227A/C137A/C431A/C717A/C956A/F978C); conditions: compared to cysless WT Pgp (taken as 100%), calcein-AM 0.5 µM 10 min, Rh123 […], other substrates 0.5 µM 45 min
Protocol: as §1, §2

Q725C mutant Pgp = Q725C mutant Pgp (Homo sapiens, UniProt P08183, C1074A/C1125A/C1227A/C137A/C431A/C717A/C956A/Q725C); conditions: compared to cysless WT Pgp (taken as 100%), calcein-AM 0.5 µM 10 min, Rh123 […], other substrates 0.5 µM 45 min
Protocol: as §1, §2

Q725C/V982C mutant Pgp = Q725C/V982C mutant Pgp (Homo sapiens, UniProt P08183, C1074A/C1125A/C1227A/C137A/C431A/C717A/C956A/Q725C/V982C); conditions: compared to cysless WT Pgp (taken as 100%), calcein-AM 0.5 µM 10 min, Rh123 […], other substrates 0.5 µM 45 min
Protocol: as §1, §2

V982C mutant Pgp = V982C mutant Pgp (Homo sapiens, UniProt P08183, C1074A/C1125A/C1227A/C137A/C431A/C717A/C956A/V982C); conditions: compared to cysless WT Pgp (taken as 100%), calcein-AM 0.5 µM 10 min, Rh123 […], other substrates 0.5 µM 45 min
Protocol: as §1, §2

Y307C mutant Pgp = Y307C mutant Pgp (Homo sapiens, UniProt P08183, C1074A/C1125A/C1227A/C137A/C431A/C717A/C956A/Y307C); conditions: compared to cysless WT Pgp (taken as 100%), calcein-AM 0.5 µM 10 min, Rh123 […], other substrates 0.5 µM 45 min
Protocol: as §1, §2

[1] = target: Y307C/Q725C/V982C mutant Pgp (Homo sapiens, UniProt P08183, C1074A/C1125A/C1227A/C137A/C431A/C717A/C956A/Q725C/V982C/Y307C); conditions: Y307/Q725C/V982C in HeLa cells; compared to cysless WT Pgp (taken as 100%); calcein-AM 0.5 µM 10 min, Rh123 […], other substrates 0.5 µM 45 min
Protocol: as §1, §2

Y307C/V982C mutant Pgp = Y307C/V982C mutant Pgp (Homo sapiens, UniProt P08183, C1074A/C1125A/C1227A/C137A/C431A/C717A/C956A/V982C/Y307C); conditions: compared to cysless WT Pgp (taken as 100%), calcein-AM 0.5 µM 10 min, Rh123 […], other substrates 0.5 µM 45 min
Protocol: as §1, §2

In the case of `CC(=O)OCOC(=O)CN(CC(=O)OCOC(C)=O)Cc1cc2c(cc1OC(C)=O)Oc1cc(OC(C)=O)c(CN(CC(=O)OCOC(C)=O)CC(=O)OCOC(C)=O)cc1C21OC(=O)c2ccccc21` [CalAM, calcein-AM], the Transport function (F343C mutant Pgp) is reported as 90-100%, the Transport function (F343C/V982C mutant Pgp) is reported as 90-100% and the Transport function (F728C mutant Pgp) is reported as 90-100%. For the same compound, the Transport function (F728C/V982C mutant Pgp) was 55-65%, the Transport function (F978C mutant Pgp) was 90-100% and the Transport function (Q725C mutant Pgp) was 90-100%. For the same compound, the Transport function (Q725C/V982C mutant Pgp) was 90-100%, the Transport function (V982C mutant Pgp) was 90-100% and the Transport function (Y307C mutant Pgp) was 90-100%. The Transport function [1] was 90-100% and the Transport function (Y307C/V982C mutant Pgp) was 90-100%.
